Assay results reported in ChEMBL document CHEMBL3885861, “Open TG-GATES”.

Species: Rattus norvegicus
Experiment: Open TG-GATES - Regimen: Single
Format: toxicity, organism-based, Sprague-Dawley
Parameters: regimen Single, gender Male, age 6 weeks
Conditions: in vivo, po, route gavage; for APTT / Bas / Eos / Fbg / Hb / Ht / Lym / MCH / MCHC / MCV / Mono / Neu / PT / Plat / RBC / Ret / WBC: tissue Blood; for KIDNEY_L / KIDNEY_R / KIDNEY_TOTAL: tissue Kidney; for LIVER: tissue Liver
[1] = 100 mg/kg, 3 h, tissue Plasma, dose level Low
[2] = 100 mg/kg, 6 h, tissue Plasma, dose level Low
[3] = 100 mg/kg, 9 h, tissue Plasma, dose level Low
[4] = 100 mg/kg, 24 h, dose level Low
[5] = 100 mg/kg, 24 h, tissue Plasma, dose level Low

C[C@H](CS)C(=O)N1CCC[C@H]1C(=O)O [CAPTOPRIL]
gamma-GTP (0 mg/kg, 24 h, tissue Plasma, dose level Control): 1 IU/L
TERMINAL_BW (100 mg/kg, 3 h, dose level Low): 224.3 g
APTT (100 mg/kg, 3 h, dose level Low): 16.3 s
Bas (100 mg/kg, 3 h, dose level Low): 0%
Eos (100 mg/kg, 3 h, dose level Low): 1%
Fbg (100 mg/kg, 3 h, dose level Low): 207 mg/dL
Hb (100 mg/kg, 3 h, dose level Low): 13.1 g/dL
Ht (100 mg/kg, 3 h, dose level Low): 40.2%
Lym (100 mg/kg, 3 h, dose level Low): 82.2%
MCH (100 mg/kg, 3 h, dose level Low): 21.1 pg
MCHC (100 mg/kg, 3 h, dose level Low): 32.7%
MCV (100 mg/kg, 3 h, dose level Low): 64.4 fL
Mono (100 mg/kg, 3 h, dose level Low): 4.8%
Neu (100 mg/kg, 3 h, dose level Low): 12.2%
PT (100 mg/kg, 3 h, dose level Low): 11.9 s
Plat (100 mg/kg, 3 h, dose level Low): 123.2 x10_4/uL
RBC (100 mg/kg, 3 h, dose level Low): 624.2 x10_4/ul
Ret (100 mg/kg, 3 h, dose level Low): 7.4%
KIDNEY_L (100 mg/kg, 3 h, dose level Low): 1 g
KIDNEY_R (100 mg/kg, 3 h, dose level Low): 1 g
KIDNEY_TOTAL (100 mg/kg, 3 h, dose level Low): 2.1 g
ALP [1]: 996 IU/L
ALT [1]: 35.6 IU/L
AST [1]: 67 IU/L
BUN [1]: 13.8 mg/dL
CRE [1]: 0.5 mg/dL
DBIL [1]: 0.008 mg/dL
GLC [1]: 205.2 mg/dL
IP [1]: 9.7 mg/dL
K [1]: 4.9 meq/L
LDH [1]: 113.6 IU/L
Na [1]: 137.8 meq/L
PL [1]: 131.8 mg/dL
RALB [1]: 3.6 g/dL
TBIL [1]: 0.4 mg/dL
TC [1]: 70.4 mg/dL
TG [1]: 68 mg/dL
TP [1]: 5.5 g/dL
gamma-GTP [1]: 2 IU/L
TERMINAL_BW (100 mg/kg, 6 h, dose level Low): 225.5 g
APTT (100 mg/kg, 6 h, dose level Low): 16.3 s
Bas (100 mg/kg, 6 h, dose level Low): 0%
Eos (100 mg/kg, 6 h, dose level Low): 1%
Hb (100 mg/kg, 6 h, dose level Low): 12.9 g/dL
Ht (100 mg/kg, 6 h, dose level Low): 39.5%
Lym (100 mg/kg, 6 h, dose level Low): 76.4%
MCH (100 mg/kg, 6 h, dose level Low): 21.8 pg
MCHC (100 mg/kg, 6 h, dose level Low): 32.8%
MCV (100 mg/kg, 6 h, dose level Low): 66.5 fL
Mono (100 mg/kg, 6 h, dose level Low): 5.8%
Neu (100 mg/kg, 6 h, dose level Low): 17%
PT (100 mg/kg, 6 h, dose level Low): 12.2 s
Plat (100 mg/kg, 6 h, dose level Low): 113.6 x10_4/uL
RBC (100 mg/kg, 6 h, dose level Low): 595.2 x10_4/ul
Ret (100 mg/kg, 6 h, dose level Low): 7.9%
WBC (100 mg/kg, 6 h, dose level Low): 126.2 x10_2/uL
KIDNEY_L (100 mg/kg, 6 h, dose level Low): 1.1 g
KIDNEY_R (100 mg/kg, 6 h, dose level Low): 1.1 g
KIDNEY_TOTAL (100 mg/kg, 6 h, dose level Low): 2.2 g
ALP [2]: 794.8 IU/L
ALT [2]: 30.8 IU/L
AST [2]: 55.6 IU/L
BUN [2]: 17.4 mg/dL
CRE [2]: 0.6 mg/dL
DBIL [2]: 0.028 mg/dL
GLC [2]: 192.4 mg/dL
IP [2]: 9.6 mg/dL
K [2]: 4.9 meq/L
LDH [2]: 73.8 IU/L
Na [2]: 138.6 meq/L
PL [2]: 130.6 mg/dL
RALB [2]: 3.7 g/dL
TBIL [2]: 0.4 mg/dL
TC [2]: 69.8 mg/dL
TG [2]: 62.6 mg/dL
TP [2]: 5.3 g/dL
gamma-GTP [2]: 1.6 IU/L
TERMINAL_BW (100 mg/kg, 9 h, dose level Low): 220.6 g
APTT (100 mg/kg, 9 h, dose level Low): 16.3 s
Bas (100 mg/kg, 9 h, dose level Low): 0%
Eos (100 mg/kg, 9 h, dose level Low): 1%
Fbg (100 mg/kg, 9 h, dose level Low): 205.8 mg/dL
Hb (100 mg/kg, 9 h, dose level Low): 12.8 g/dL
Ht (100 mg/kg, 9 h, dose level Low): 38.8%
Lym (100 mg/kg, 9 h, dose level Low): 74%
MCH (100 mg/kg, 9 h, dose level Low): 21.6 pg
MCHC (100 mg/kg, 9 h, dose level Low): 33%
MCV (100 mg/kg, 9 h, dose level Low): 65.6 fL
Mono (100 mg/kg, 9 h, dose level Low): 5.4%
Neu (100 mg/kg, 9 h, dose level Low): 19.2%
PT (100 mg/kg, 9 h, dose level Low): 12.1 s
Plat (100 mg/kg, 9 h, dose level Low): 119.2 x10_4/uL
RBC (100 mg/kg, 9 h, dose level Low): 591.8 x10_4/ul
Ret (100 mg/kg, 9 h, dose level Low): 8.2%
KIDNEY_L (100 mg/kg, 9 h, dose level Low): 1 g
KIDNEY_R (100 mg/kg, 9 h, dose level Low): 1 g
KIDNEY_TOTAL (100 mg/kg, 9 h, dose level Low): 2 g
LIVER (100 mg/kg, 9 h, dose level Low): 9 g
ALP [3]: 891.4 IU/L
ALT [3]: 30.6 IU/L
AST [3]: 59.2 IU/L
BUN [3]: 13.4 mg/dL
CRE [3]: 0.4 mg/dL
DBIL [3]: 0.084 mg/dL
GLC [3]: 202.4 mg/dL
K [3]: 4.7 meq/L
LDH [3]: 71 IU/L
Na [3]: 138.6 meq/L
PL [3]: 122.4 mg/dL
RALB [3]: 3.6 g/dL
TBIL [3]: 0.3 mg/dL
TC [3]: 65.2 mg/dL
TG [3]: 55.8 mg/dL
TP [3]: 5.2 g/dL
gamma-GTP [3]: 1.8 IU/L
TERMINAL_BW [4]: 234.4 g
APTT [4]: 17.2 s
Bas [4]: 0%
Eos [4]: 1.4%
Hb [4]: 12.8 g/dL
Ht [4]: 38.4%
Lym [4]: 71.8%
MCH [4]: 21.1 pg
MCHC [4]: 33.2%
MCV [4]: 63.6 fL
Mono [4]: 6.4%
Neu [4]: 20%
PT [4]: 11.6 s
Plat [4]: 114.1 x10_4/uL
RBC [4]: 604.4 x10_4/ul
Ret [4]: 8.7%
WBC [4]: 82.6 x10_2/uL
KIDNEY_L [4]: 1.1 g
KIDNEY_R [4]: 1.1 g
KIDNEY_TOTAL [4]: 2.3 g
LIVER [4]: 11.3 g
ALT [5]: 40.8 IU/L
AST [5]: 68.8 IU/L
BUN [5]: 15.8 mg/dL
CRE [5]: 0.6 mg/dL
Ca [5]: 11.1 mg/dL
DBIL [5]: 0.058 mg/dL
GLC [5]: 189.4 mg/dL
IP [5]: 8.5 mg/dL
K [5]: 4.6 meq/L
LDH [5]: 113 IU/L
Na [5]: 139 meq/L
PL [5]: 147.6 mg/dL
RALB [5]: 4 g/dL
TBIL [5]: 0.3 mg/dL
TC [5]: 78.8 mg/dL
TG [5]: 92.8 mg/dL
TP [5]: 5.8 g/dL
